Values of other authors in article PMC9663925, “Phase I pharmacokinetic study of an oral, small-molecule MEK inhibitor tunlametinib in patients with advanced NRAS mutant melanoma” (Frontiers in Pharmacology, 2022).
Like-named read-outs stand apart in the source and are kept apart here.

For `Cn1cnc2c(F)c(Nc3ccc(Br)cc3F)c(C(=O)NOCCO)cc21` [binimetinib], the Tmax (ref Bendell et al., 2017) is listed as 1.00 to 3.00 h.
For `CC(=O)Nc1cccc(-n2c(=O)n(C3CC3)c(=O)c3c(Nc4ccc(I)cc4F)n(C)c(=O)c(C)c32)c1` [trametinib], the Tmax (ref Infante et al., 2012) is given as 1.0 to 2.08 h.
For `O=C(c1ccc(F)c(F)c1Nc1ccc(I)cc1F)N1CC(O)([C@@H]2CCCCN2)C1` [cobimetinib], the Tmax (ref Rosen et al., 2016) is given as 2.4 to 3 h.
In the case of `Cn1cnc2c(F)c(Nc3ccc(Br)cc3Cl)c(C(=O)NOCCO)cc21` [selumetinib], the Tmax (ref Adjei et al., 2008) is given as 1.0 to 3 h.
